From patent US20040038828A1 (priority 2002, published 2004)
“Also recorded” adds a separate entry of the source. Read-outs that look alike come from different tables or passages of the source.

Experiments:
[1] = tested on: purple nutsedge (Cyperus rotundus) tubers; assay: Herbicide screen, nutsedge greenhouse assay (soil drench in pots); format: in vivo; settings: for level eliminating the germination of nutsedge: 100 ml soil drench, 500 g soil, tarped 7 days, shoots counted for 60 days
Experimental: (§1) Herbicide Screen: Each compound was tested on seeds of smooth pigweed (Amaranthus hybridus) and barnyard grass (Echinocloa crus-galli), and on tubers of purple nutsedge (Cyperus rotundus), by exposing seeds or tubers to a specific concentration of the test compound. Seeds were surface sterilized (by rinsing in 2% bleach solution for 90 seconds followed by two rinses with sterile water) and 20 seeds placed on sterile filter paper (Whatman #5) in a 10-cm petri plate for each of six replicates for each weed species tested. Twenty ml of compound of concentrations ranging from 0 ppm (sterile water control) to 2000 ppm was added to the petri dishes. Plates were stored at 30° C. in an dark incubator. Seed germination was monitored at 24 hr intervals for 30 days. Petri plate bioassays were repeated twice for each compound. Field collected purple nutsedge tubers were placed in 500 g of field soil with soil moisture adjusted to 5%. Five nutsedge tubers were planted in each 10 cm pot at a depth of 2.5 cm. Six replicate pots of each concentration, ranging from 0 ppm (water control) to 2000 ppm, were treated using 100 ml as a soil drench. Pots were tarped with co-extruded black-on-white polyethylene mulch for 7 days. After the tarps were removed, the number of emerged nutsedge shoots was recorded on a weekly basis for 60 days.

Corn spurry = format: in vivo; settings: Watsonville plots; rate 400 lbs acres^−1
Verticillium dahliea = format: in vivo; settings: Watsonville; preplant fumigation, 400 pound per acre
Common chickweed = format: in vivo; settings: Watsonville plots; rate 400 lbs acres^−1
[2] = tested on: smooth pigweed (Amaranthus hybridus) seeds; assay: Herbicide screen, smooth pigweed petri plate bioassay; format: in vivo; settings: all ppm levels tested (up to 2000 ppm), 30 days
Experimental: as §1

Little mallow = format: in vivo; settings: Watsonville plots; rate 400 lbs acres^−1
Shepherd-spurse = format: in vivo; settings: Salinas plots; rate 400 lbs acres^−1
Southern brassbuttons = format: in vivo; settings: Watsonville plots; rate 400 lbs acres^−1
Annual sowthistle = format: in vivo; settings: Watsonville plots; rate 400 lbs acres^−1
Henbet = format: in vivo; settings: Salinas plots; rate 400 lbs acres^−1
Commong roundsel = format: in vivo; settings: Salinas plots; rate 400 lbs acres^−1
[3] = tested on: Fusarium oxysporum f. sp. lycopersici (isolate FP-7) spores; assay: Fusarium Tetrazolium Assay; format: cell-based; settings: 24 hours of exposure; MTT absorbance at 570 nm
Experimental: Fusarium Tetrazolium Assay: The evaluation of fungicidal activity was performed using a modified colorimetric assay (Mace, M. E., et al., Pesticide Biochemistry and Physiology, 38: 57-59 (1990)). Each candidate compound was tested using a suspension of Fusarium oxysporum f. sp. lycopersici (isolate FP-7) spores harvested from 10-day old petri plates using a 0.05% stock solution of Triton X-100 (referred to as FT stock). Harvested spores were suspended in Czapek-Dox Broth (CDB), prepared according to label instructions, at a ratio of 1:5 CDB:FT. The suspension was then standardized using a Beckman spectrophotometer (430 nm) which had been calibrated using a CDB blank. Compounds were then added to aliquots of the suspension to achieve active ingredient concentrations ranging from 0 ppm (untreated control) to 2000 ppm. Suspensions were incubated for 24 hr at 28° C. A 10% stock solution of MTT ((3-4,5-dimethylthiazole-2-yl)-2,5-diphenyl-2-2H-tetrazolium bromide) was then added to each aliquot; MTT is a vital stain that is commonly used to show if an organism is alive based on a color change). The suspensions were allowed to incubate for 4 hr, and then pelleted, drained, rinsed, and treated with 95% ethanol. The color change, which correlates with spore viability, was assessed using a Beckman spectrophotometer (570 nm) calibrated with 95% ethanol. Benlate® (benomyl) was used as an industry standard control. Each treatment was replicated six times and the assay for each compound was repeated. Regression analysis was performed using Sigma Plot 2000.

[4] = tested on: barnyard grass (Echinocloa crus-galli) seeds; assay: Herbicide screen, barnyard grass petri plate bioassay; format: in vivo; settings: all ppm levels tested (up to 2000 ppm), 30 days
Experimental: as §1

[5] = tested on: root-knot nematode eggs (Meliodogyne incognita); assay: Nematicide screen, root-knot nematode galling assay on tomato; format: in vivo; settings: 0 to 2000 ppm soil drench, tarped 14 days, seedlings assessed 30 days after transplant
Experimental: Nematicide Screen: Efficacy as a nematicide was evaluated by infesting field soil with a standardized quantity of root-knot nematode eggs (Meliodogyne incognita). Soil was partitioned into 10 cm pots containing 500 g of soil each with soil moisture adjusted to 5%. Pots were treated with compounds ranging from 0 ppm to 2000 ppm of active ingredient in a 100-ml soil drench. Six replicate pots of each concentration were treated and tarped with co-extruded black-on-white polyethylene mulch for 14 days. After tarps were removed, a single tomato seedling was transplanted into each pot. Seedlings were removed 30 days later and assessed for root galling, root fresh weight, root dry weight, and number of eggs produced per gram of root tissue.

native weed population [6] = format: in vivo
native weed population [7] = format: in vivo; settings: Salinas plots, rate 400 lbs acres^−1
Redstem filaree = format: in vivo; settings: Watsonville plots; rate 400 lbs acres^−1

In the case of OCCBr [2-bromoethanol], the “level eliminating the germination of nutsedge” value [1] is reported as at least 1000 ppm, the nutsedge germination ([1]; at the 500 ppm level) is reported as “approximately 50%” and the “soil applied equivalent of the rate eliminating nutsedge germination” value ([1]; equivalent of the 1000 ppm drench level) is reported as 200 ppm. For the same compound, the “weed biomass, Corn spurry” value (Corn spurry) was 1.1 gram/m^2, the “reduction of the population of Verticillium dahliea” value (Verticillium dahliea) was 74% and the “weed biomass, Common chickweed” value (Common chickweed) was 1.6 gram/m^2. For the same compound, the “germination of pigweed seeds” value [2] was “eliminated at all ppm levels tested”, the “weed biomass, Little mallow” value (Little mallow) was 0.2 gram/m^2 and the “weed biomass, Shepherd-spurse” value (Shepherd-spurse) was 11.3 gram/m^2. The “weed biomass, Southern brassbuttons” value (Southern brassbuttons) was 1.0 gram/m^2, the “weed biomass, Annual sowthistle” value (Annual sowthistle) was 0.0 gram/m^2 and the “weed biomass, Henbet” value (Henbet) was 9.4 gram/m^2. The “weed biomass, Commong roundsel” value (Commong roundsel) was 0.3 gram/m^2, the “fungicidal activity (in words)” value [3] was “excellent fungicidal activity” and the “germination of barnyard grass seeds” value [4] was “eliminated at all ppm levels tested”. For the same compound, the “root gall severity on tomato” value [5] was “Only the untreated control showed galling of any kind”, the “control of native weeds (in words)” value (native weed population [6]; Watsonville) was “control of most weeds” and the “weed biomass, Other weeds” value (native weed population [6]; Watsonville plots, rate 400 lbs acres^−1) was 3.6 gram/m^2. The Total weed biomass (native weed population [6]; Watsonville plots, rate 400 lbs acres^−1, same letter = not significantly different at P <0.05) was 13.7a gram/m^2, the “weed biomass, Other weeds” value (native weed population [7]) was 21.5 gram/m^2 and the Total weed biomass (native weed population [7]; same letter = not significantly different at P < 0.05) was 46.7a gram/m^2. The “weed biomass, Redstem filaree” value (Redstem filaree) was 0.3 gram/m^2.
With OCCI [2-iodoethanol] the “level eliminating the germination of nutsedge” value [1] was at least 500 ppm, the “germination of pigweed seeds” value [2] was “eliminated at all ppm levels tested” and the “concentration effective at reducing cell viability to levels achieved with Benlate (100 ppm)” value [3] was 100-500 ppm. For the same compound, the “fungicidal activity (in words)” value [3] was “comparable to the Benlate® control; also recorded: excellent fungicidal activity”, the “germination of barnyard grass seeds” value [4] was “eliminated at all ppm levels tested” and the “root gall severity on tomato” value [5] was “galling decreases with increased concentration”.
